Test results published in US20260069694A1, “IDENTIFICATION OF HIGHLY IMMUNOSUPRESIVE TREG POPULATION IN TUMOR MICROENVIRONMENTS” (THE TRUSTEES OF COLUMBIA UNIVERSITY IN THE CITY OF NEW YORK, priority 2023, published 2026).
Entries after “also recorded” stand apart in the source; their conditions may differ.

Tests used:
huPDAC tumors = assay: Humanized PDAC (huPDAC) mice treated with iRGD monotherapy; type: in vivo, mouse
From the text: In summary, this report conveys an important concept of tumor-specific Treg targeting, which can be achieved using an affinity probe that targets the αvβ5 integrin expressed on tumor-resident Tregs. […] The immune system of huPDAC mice is replaced by functional human immune cells, which react to antigens in a human-leukocyte antigen (HLA)-restricted manner, allowing us to study the response of human immunity against human PDAC in mice. […] Our finding that patient-derived PDAC tissue also harbors αvβ5 integrin- and NRP-1-positive Tregs further supports the argument that iRGD-mediated Treg targeting can be achieved in human PDAC patients. Clinical trials are now being organized to explore the therapeutic benefit of adding an ICB to iRGD-based chemotherapy in PDAC patients.

[1] = system: naïve CD4+ T cells / CD4+CD25+Foxp3+ iTregs; assay: iTreg induction from naive CD4+ T cells in the absence or presence of iRGD or iRGE; type: cell-based, mouse
Procedure: Naïve CD4^+ T cells and nTregs were isolated from the spleen of healthy C57B6129SF1/J mice by magnetic separation using a mouse CD4+ T cell isolation kit and PE-conjugated anti-mouse CD25 with anti-PE magnetic separation micro beads (Miltenyi Biotec™). The isolated T cells were stimulated with anti-CD3/CD28 beads (×25 dilution; Miltenyi Biotec™) in the presence or absence of recombinant mouse TGF-β1 (5 ng/ml; Bio-Techne™ Corporation) for 3 days. iRGD (100 μM) or iRGE (100 μM) peptide was added to the cultures in some experiments. To study the effect of TGF-β1 on the induction of αvβ5 integrin+ iTregs, naïve CD4+ T cells were cultured with anti-CD3/CD28 beads (x 25 dilution) and TGF-β1 (5 ng/ml) in the presence or absence of varying concentrations of a TGF-βR1 inhibitor (LY2157299; Selleck™ Chemicals LLC). To study the effect of TCR stimulation on the induction of αvβ5 integrin+ iTregs, naïve CD4+ T cells treated with varying concentrations of plate-coated anti-mouse CD3 Ab (eBioscience™) in the presence of soluble anti-mouse CD28 Ab (2 μg/ml) (eBioscience™) and TGF-β1 (5 ng/ml). The cells were subjected to flow cytometry as described elsewhere.
For the data presented in FIG. 31, FIG. 32A, and FIG. 32B, naïve CD4+ T cells were stimulated with anti-CD3/CD28 Abs and TGF-β1 in the absence or presence of iRGD or iRGE. Flow cytometry was performed to quantify the proportion of CD4+CD25+Foxp3+ iTregs (see FIG. 31) and αvβ5 integrin+ cells among the iTregs (See FIG. 32A). Apoptosis of αvβ5 integrin+ iTregs was quantitated by measuring cleaved caspase 3 using flow cytometry (see FIG. 32B; n=3).
To investigate whether iRGD Reduces CD4+CD25+Foxp3+ iTregs in an RGD-Dependent Manner in Vitro, naïve CD4+ T cells were stimulated with anti-CD3/CD28 Abs and TGF-β1 in the absence or presence of the iRGD or iRGE peptide. The resulting cells were subjected to flow cytometry to analyze the expression of CD25 and Foxp3 in the CD4+ T cells (FIG. 33A) and the expression of the αvβ5 integrin and NRP-1 on CD4+CD25+Foxp3+ iTregs (FIG. 33B). The bar diagram in (FIG. 33C) summarizes the proportion of NRP-1+ cells among the iTregs. The statistical analysis used was the one-way ANOVA; p=0.8221. n=3 per group.
The proportion of apoptotic αvβ5 integrin+ iTregs (FIG. 34) and CD4+Foxp3neg T cells (FIG. 35) was quantitated by measuring cleaved caspase 3 using flow cytometry. The statistical analysis used was Welch's t test; p=0.0705 (n=3). The dot plots and histograms of FIG. 33C and FIG. 35 show representative data from the 3 independent experiments. The error bars indicate the mean±standard error; N.S., not significant.

metastatic PDAC = settings: in combination with gemcitabine (Gem) and nab-paclitaxel (Nab-P), phase 1b; cited from earlier work
[2] = peptide 100 μM, anti-CD3/CD28 Abs and TGF-β1

Sequence: CRGDKGPDC [iRGD]
- CD8/Treg ratio in the huPDAC tumors (huPDAC tumors): increased the CD8/Treg ratio in the tumors
- apoptosis of CD4+Foxp3neg T cells (cleaved caspase 3) ([1]; flow cytometry): Neither iRGD nor iRGE increased the apoptosis
- apoptosis of αvβ5 integrin+ Tregs (cleaved caspase 3) ([1]; flow cytometry): induces apoptosis of αvβ5 integrin^+ Tregs in an RGD-dependent manner; also recorded: increased apoptosis
- proportion of NRP-1-positive iTregs ([1]; peptide 100 μM): did not alter the proportion
- proportion of CD4+CD25+Foxp3+ iTregs [1, 2]: reduction
- αvβ5 integrin-positive population among the iTregs [1, 2]: reduction
- efficacy against metastatic PDAC (metastatic PDAC): promising preliminary efficacy
